# Results as given in US10813944B2, “Cyclodextrins as procoagulants” (STICHTING SANQUIN BLOEDVOORZIENING, priority 2016, dated 2020).
# Experiments:
# [1] = system: plasma deficient in coagulation factor VIII; experiment: Thrombin generation assay in plasma deficient in coagulation factor VIII; type: biochemical, human
# Procedure: FIG. 20: Plasma deficient in coagulation factor VIII was spiked with cyclodextrin OKL-1111 (A), OKL-1180 (B), and OKL-1187 (C) at the indicated concentrations.
# (§1) The Calibrated Automated Thrombogram® assays the generation of thrombin in clotting plasma using a microtiter plate reading fluorometer (Fluoroskan Ascent, ThermoLab systems, Helsinki, Finland) and Thrombinoscope® software (Thrombinoscope BV, Maastricht, The Netherlands). The assay was carried out as described by Hemker et al. (Pathofysiol. IIaemost. Thromb. 2003, 33, 4-15), and the Thrombinoscope® manual. Coagulation was triggered by recalcification in the presence of 1 or 5 pM recombinant human tissue factor (Innovin®, Siemens, Marburg, Germany), 4 μM phospholipids, and 417 μM fluorogenic substrate Z-Gly-Gly-Arg-AMC (Bachem, Bubendorf, Switzerland). Fluorescence was monitored using the Fluoroskan Ascent fluorometer (ThermoLabsystems, Helsinki, Finland), and the lag time, peak thrombin, velocity index and area under the curve (ETP) were calculated using the Thrombinoscope® software (Thrombinoscope BV).
# [2] = system: normal human plasma pretreated with inhibitory antibodies against factor IX; experiment: Thrombin generation in normal plasma spiked with inhibitory antibodies against factor IX; type: biochemical; settings: antibody 5F5 20 μg/ml; 1 pM TF
# Procedure: as §1
# (§2) Normal plasma was spiked with inhibitory antibodies against factor VIII (Sanquin, VK34, 14 μg/ml), factor IX (Sanquin, 5F5, 20 μg/ml) or factor XI (Sanquin, mix of #203 and #175, 75 μg/ml). The effect of OKL-1111 was tested in thrombin generation assay using 1 pM tissue factor (TF). This model is representative for hemophilia A, B and C patients that have developed inhibitory antibodies against plasma-derived or recombinant factor VIII or IX or XI they are treated with.
# [3] = system: normal human plasma pretreated with inhibitory antibodies against factor VIII; experiment: Thrombin generation in normal plasma spiked with inhibitory antibodies against factor VIII; type: biochemical; settings: antibody VK34 14 μg/ml; 1 pM TF
# Procedure: as §1, §2
# [4] = system: human plasma deficient in coagulation factor XI; experiment: Thrombin generation assay in human plasma deficient in coagulation factor XI; type: biochemical
# Procedure: as §1
# [5] = system: mice anticoagulated with rivaroxaban; experiment: In vivo saphenous vein bleeding model in mice anticoagulated with rivaroxaban; settings: mice fed rivaroxaban for 4 days; cyclodextrin by tail vein injection 5 min before bleeding assay; OKL-1111 dose expected to give 25 μM in plasma
# Procedure: FIG. 29: In vivo analysis of procoagulant potential of OK-1111 and OKL-1147. Except for controls, animals were treated with rivaroxaban for 4 days and cyclodextrins were administered 5 min prior bleeding assay.
# (§3) All animal protocols were approved by the Institutional Animal Care and Use Committee of the University of North Carolina. C57BL6/J mice were purchased from Charles Rivers Laboratories (Willmington, Mass.). Bleeding studies were done essentially as previously described Pastoft et al. (Haemophilia 2012; 18:782-8). Mice were anesthetized with isoflurane throughout all procedures. The hair on the ventral side of both hind limbs was removed. The animals were placed supine on a temperature and ECG monitoring board. The paws were gently restrained by looping soft polyethylene tubing around them and attaching the tubing to the ECG board. The skin on the left and right ventral hind limb was incised which exposes a length of the saphenous neurovascular bundle; the bundle was covered with normal saline to prevent drying. To assess haemostasis, the right saphenous vein was transected by piercing it with a 23-G needle followed by a longitudinal incision made in the distal portion of the vessel. Blood was gently wicked away until haemostasis occurred. The clot was then removed to restart bleeding and the blood was again wicked away until haemostasis occurs again. Clot disruption was repeated after every incidence of haemostasis for 30 minutes. Mice were fed chow that contained 0.1 mg rivaroxaban per g of chow. The mice were on this diet for 4 days to allow them to reach a steady state. Cyclodextrins were administered by a tail vein injection 5 minutes before the start of the bleeding assay. Two parameters were measured: 1) the number of times that haemostasis occurs in a 30 minute period, and 2) the time required for each haemostasis.
# Hemophilia A mice = experiment: In vivo vena saphena bleeding model in hemophilia A mice
# From the text: FIG. 30: Effect of OKL-1111 and OKL-1187 on coagulation in mouse hemophilia A assay.
# as §3, with “Clot disruption was repeated after every incidence of haemostasis for 30 minutes. Mice were fed chow that contained 0.1 mg rivaroxaban per g of chow. The mice were on this diet for 4 days to allow them to reach a steady state. Cyclodextrins were administered by a tail vein injection 5 minutes before the start of the bleeding assay.” left out, “haemostasis. […]” for “haemostasis.”
# [6] = system: plasma of a hemophilia A patient containing anti-FVIII antibodies; experiment: Thrombin generation in plasma of a hemophilia A patient with anti-factor VIII antibodies; type: biochemical, human; settings: anti-FVIII antibodies 50 BU
# Procedure: FIG. 28: Effect of OKL-1111 (A), OKL-1180 (B) and OKL-1187 (C) on coagulation in plasma of a hemophilia A patient with anti-factor VIII antibodies. BU=Bethesda Units.
# as §1
# The patient had developed antibodies against factor VIII prior to plasma withdrawal. The plasma contained high levels of anti-FVIII antibodies (50 BU).
# [7] = system: plasma deficient in coagulation factor IX; experiment: Thrombin generation assay in plasma deficient in coagulation factor IX; type: biochemical, human
# Procedure: as §1
# VKA plasma = experiment: Thrombin generation in plasma of individuals taking vitamin K antagonists (VKA plasma); type: biochemical, human; settings: two intensities of treatment (INR); 1 pM TF
# From the text: FIG. 11: Plasma was used from individuals taking vitamin K-antagonists (VKA plasma). Two different intensities of treatment (given as INR) were available, as depicted in (A) and (B). The plasmas were subjected to thrombin generation analysis as described in the Materials and Methods section with 1 pM tissue factor (TF) as initiator of coagulation.
# as §1
# [8] = system: normal human plasma pretreated with inhibitory antibodies against factor XI; experiment: Thrombin generation in normal plasma spiked with inhibitory antibodies against factor XI; type: biochemical; settings: mix of #203 and #175, 75 μg/ml; 1 pM TF
# Procedure: as §1, §2
# [9] = system: thrombin generation in pooled normal plasma; experiment: Calibrated Automated Thrombogram thrombin generation assay in pooled normal plasma; type: biochemical, human
# [10] = normal plasma, versus absence of cyclodextrin
smiles,measurement,setting,value
O=C(O)CCCCCSCC1OC2OC3C(CSCCCCCC(=O)O)OC(OC4C(CSCCCCCC(=O)O)OC(OC5C(CSCCCCCC(=O)O)OC(OC6C(CSCCCCCC(=O)O)OC(OC7C(CSCCCCCC(=O)O)OC(OC8C(CSCCCCCC(=O)O)OC(OC9C(CSCCCCCC(=O)O)OC(OC1C(O)C2O)C(O)C9O)C(O)C8O)C(O)C7O)C(O)C6O)C(O)C5O)C(O)C4O)C(O)C3O (centres unmarked) [OKL-1111],procoagulant effect in factor VIII deficient plasma,[1],stimulate coagulation significantly
same,thrombin generation in plasma with inhibitory antibodies against factor IX,[2],concentration-dependently stimulated thrombin generation
same,thrombin generation in plasma with inhibitory antibodies against factor VIII,[3],concentration-dependently stimulated thrombin generation
same,stimulation of coagulation in factor XI deficient plasma,[4],stimulate coagulation significantly
same,clotting times,[5],normalization of the clotting times
same,hemostasis compared to factor VIII alone,Hemophilia A mice; factor VIII 2.5 IU/kg plus OKL-1111 1 μmol/kg,significantly higher
same,number of clots formed over a 30 minute period,Hemophilia A mice; factor VIII 2.5 IU/kg plus OKL-1111 1 μmol/kg (designed to give 25 μM in plasma),7-9 clots
same,thrombin generation in hemophilia A patient plasma,[6],concentration-dependently stimulated thrombin generation
same,procoagulant activity in factor IX deficient plasma,[7],stimulate coagulation significantly
same,thrombin generation in plasma of patients using vitamin K antagonists,VKA plasma,could be improved
same,thrombin generation in plasma with inhibitory antibodies against factor XI,[8],concentration-dependently stimulated thrombin generation
same,procoagulant effect in normal plasma,"[9]; no anticoagulant, cyclodextrin 100 μM unless otherwise indicated, 1 pM TF",very strong procoagulant effects
same,lag time,[9]; [10],considerably shorter
same,peak thrombin,[9]; [10],largely increased
